These are literature values, as cited in US20240165186A1, “Synergistically Formulated Compound for Mitochondria Supplementation and Enhancement” (priority 2022, published 2024).

For the series the following is noted: relative to vitamin C; no test described.

For the compound `O=C(O)c1cc(C(=O)O)c2c(n1)C(=O)C(=O)c1cc(C(=O)O)[nH]c1-2` [PQQ, Pyrroloquinoline Quinone], the “times more effective than vitamin C as an antioxidant” value is given as not above 1000 times.
